Calls of active or inactive are those of the source.
Columns and labels:
Ephrin type-A receptor 1 = biological target: T1, Ephrin type-A receptor 1 (Homo sapiens, UniProt P21709)
T1 sequence (P21709 whole entry): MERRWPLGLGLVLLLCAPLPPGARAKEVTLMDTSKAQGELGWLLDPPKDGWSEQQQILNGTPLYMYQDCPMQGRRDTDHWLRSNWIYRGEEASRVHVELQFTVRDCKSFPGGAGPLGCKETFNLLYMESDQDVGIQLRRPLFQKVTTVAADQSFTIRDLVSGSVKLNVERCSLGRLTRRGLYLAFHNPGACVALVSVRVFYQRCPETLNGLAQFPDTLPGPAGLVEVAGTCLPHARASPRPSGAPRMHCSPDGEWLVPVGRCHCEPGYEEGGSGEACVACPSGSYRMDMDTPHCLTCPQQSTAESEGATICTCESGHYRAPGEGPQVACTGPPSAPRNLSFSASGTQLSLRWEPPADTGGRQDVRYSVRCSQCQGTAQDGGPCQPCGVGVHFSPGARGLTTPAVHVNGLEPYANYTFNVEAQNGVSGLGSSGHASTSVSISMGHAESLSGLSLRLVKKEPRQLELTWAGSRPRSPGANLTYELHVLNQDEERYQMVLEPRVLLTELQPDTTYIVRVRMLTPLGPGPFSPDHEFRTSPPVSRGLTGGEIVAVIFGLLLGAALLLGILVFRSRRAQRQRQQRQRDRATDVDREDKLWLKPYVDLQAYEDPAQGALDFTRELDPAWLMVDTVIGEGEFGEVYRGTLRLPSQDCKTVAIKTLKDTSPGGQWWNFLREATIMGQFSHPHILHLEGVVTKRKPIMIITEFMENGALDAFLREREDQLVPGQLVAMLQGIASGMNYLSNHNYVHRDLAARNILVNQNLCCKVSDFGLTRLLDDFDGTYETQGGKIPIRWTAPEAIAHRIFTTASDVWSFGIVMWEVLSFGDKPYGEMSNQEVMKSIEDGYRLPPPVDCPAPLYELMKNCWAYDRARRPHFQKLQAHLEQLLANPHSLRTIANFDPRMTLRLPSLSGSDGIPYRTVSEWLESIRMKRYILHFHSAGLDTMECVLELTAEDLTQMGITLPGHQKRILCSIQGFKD

[1] = biological target: Glycogen synthase kinase-3 beta (Homo sapiens, UniProt P49841)
Glycogen synthase kinase-3 beta, sequence (P49841 whole entry): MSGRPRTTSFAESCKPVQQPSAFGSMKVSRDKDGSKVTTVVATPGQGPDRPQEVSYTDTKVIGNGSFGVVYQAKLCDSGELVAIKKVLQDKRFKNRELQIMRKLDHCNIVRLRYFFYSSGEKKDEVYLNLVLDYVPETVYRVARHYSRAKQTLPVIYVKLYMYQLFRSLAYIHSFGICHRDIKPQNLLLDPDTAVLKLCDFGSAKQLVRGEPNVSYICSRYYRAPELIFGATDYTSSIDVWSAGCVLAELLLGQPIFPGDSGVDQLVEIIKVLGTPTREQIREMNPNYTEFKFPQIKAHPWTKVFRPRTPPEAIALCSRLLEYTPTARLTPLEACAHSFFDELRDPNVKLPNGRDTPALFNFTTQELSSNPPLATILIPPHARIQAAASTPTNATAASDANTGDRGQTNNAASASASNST

[2] = biological target: T2, MAP/microtubule affinity-regulating kinase 4 (Homo sapiens, UniProt Q96L34)
T2 sequence (Q96L34 whole entry): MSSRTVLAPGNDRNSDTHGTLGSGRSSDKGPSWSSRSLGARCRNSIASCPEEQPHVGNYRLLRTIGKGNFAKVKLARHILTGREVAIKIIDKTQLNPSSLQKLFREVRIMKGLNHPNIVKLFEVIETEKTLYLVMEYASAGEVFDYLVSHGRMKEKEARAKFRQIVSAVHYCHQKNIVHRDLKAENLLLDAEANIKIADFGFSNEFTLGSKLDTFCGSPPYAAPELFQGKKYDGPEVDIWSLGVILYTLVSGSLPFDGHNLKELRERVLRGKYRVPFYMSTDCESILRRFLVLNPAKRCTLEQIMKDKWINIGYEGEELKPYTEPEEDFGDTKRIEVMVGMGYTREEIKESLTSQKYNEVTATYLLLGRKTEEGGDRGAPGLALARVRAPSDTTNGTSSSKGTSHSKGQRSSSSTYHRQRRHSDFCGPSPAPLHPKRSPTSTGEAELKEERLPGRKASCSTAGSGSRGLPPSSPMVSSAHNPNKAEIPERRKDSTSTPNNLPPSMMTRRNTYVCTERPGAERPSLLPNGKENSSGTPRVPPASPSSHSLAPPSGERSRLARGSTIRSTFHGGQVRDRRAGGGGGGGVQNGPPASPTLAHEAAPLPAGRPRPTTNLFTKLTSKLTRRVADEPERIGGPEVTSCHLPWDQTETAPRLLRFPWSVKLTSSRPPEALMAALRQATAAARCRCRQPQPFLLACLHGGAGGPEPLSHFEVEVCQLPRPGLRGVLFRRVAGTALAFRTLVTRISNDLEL

[3] = biological target: Serine/threonine-protein kinase PLK1 (Homo sapiens, UniProt P53350)
Serine/threonine-protein kinase PLK1, sequence (P53350 whole entry): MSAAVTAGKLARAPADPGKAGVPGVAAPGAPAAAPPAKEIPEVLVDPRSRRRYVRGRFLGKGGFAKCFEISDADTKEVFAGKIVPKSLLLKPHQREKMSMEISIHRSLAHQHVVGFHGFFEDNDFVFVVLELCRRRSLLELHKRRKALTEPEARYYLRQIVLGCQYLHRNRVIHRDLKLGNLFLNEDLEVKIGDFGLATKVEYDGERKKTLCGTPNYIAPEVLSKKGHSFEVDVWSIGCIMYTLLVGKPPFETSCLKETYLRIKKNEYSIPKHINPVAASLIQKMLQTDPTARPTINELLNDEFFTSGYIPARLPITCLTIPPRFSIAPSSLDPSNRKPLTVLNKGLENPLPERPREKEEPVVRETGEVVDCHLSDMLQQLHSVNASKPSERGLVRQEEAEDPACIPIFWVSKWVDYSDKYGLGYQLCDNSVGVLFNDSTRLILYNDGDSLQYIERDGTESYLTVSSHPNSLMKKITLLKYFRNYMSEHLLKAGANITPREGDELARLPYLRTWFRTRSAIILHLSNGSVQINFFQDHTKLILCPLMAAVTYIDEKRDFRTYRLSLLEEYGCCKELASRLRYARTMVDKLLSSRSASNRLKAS

[4] = biological target: Serine/threonine-protein kinase 38 (Homo sapiens, UniProt Q15208)
Serine/threonine-protein kinase 38, sequence (Q15208 whole entry): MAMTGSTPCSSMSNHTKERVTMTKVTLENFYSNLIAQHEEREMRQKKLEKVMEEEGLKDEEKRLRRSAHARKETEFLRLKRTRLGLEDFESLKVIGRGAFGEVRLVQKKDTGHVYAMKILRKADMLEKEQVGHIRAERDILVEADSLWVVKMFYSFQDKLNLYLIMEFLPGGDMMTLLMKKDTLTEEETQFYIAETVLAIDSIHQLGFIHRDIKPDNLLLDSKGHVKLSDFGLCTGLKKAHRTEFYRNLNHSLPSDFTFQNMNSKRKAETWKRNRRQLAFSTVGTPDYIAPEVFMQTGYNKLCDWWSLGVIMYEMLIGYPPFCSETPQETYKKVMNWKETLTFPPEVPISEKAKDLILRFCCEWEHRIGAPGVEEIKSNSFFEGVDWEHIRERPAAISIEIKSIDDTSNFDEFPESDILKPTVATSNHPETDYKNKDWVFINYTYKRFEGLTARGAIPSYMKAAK

[5] = biological target: Cyclin-dependent kinase 10 (Homo sapiens, UniProt Q15131)
Cyclin-dependent kinase 10, sequence (Q15131 whole entry): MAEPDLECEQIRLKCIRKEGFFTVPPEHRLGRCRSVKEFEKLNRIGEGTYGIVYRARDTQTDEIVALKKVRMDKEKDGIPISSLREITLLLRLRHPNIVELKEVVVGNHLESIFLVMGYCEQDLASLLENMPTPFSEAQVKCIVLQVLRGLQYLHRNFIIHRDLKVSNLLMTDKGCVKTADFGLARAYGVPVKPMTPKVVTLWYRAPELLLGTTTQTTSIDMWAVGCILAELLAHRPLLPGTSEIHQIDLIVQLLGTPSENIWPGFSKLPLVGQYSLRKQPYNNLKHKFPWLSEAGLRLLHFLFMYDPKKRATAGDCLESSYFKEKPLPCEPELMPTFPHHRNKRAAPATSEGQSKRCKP

[6] = biological target: Eukaryotic peptide chain release factor GTP-binding subunit ERF3B (Homo sapiens, UniProt Q8IYD1)
Eukaryotic peptide chain release factor GTP-binding subunit ERF3B, sequence (Q8IYD1 whole entry): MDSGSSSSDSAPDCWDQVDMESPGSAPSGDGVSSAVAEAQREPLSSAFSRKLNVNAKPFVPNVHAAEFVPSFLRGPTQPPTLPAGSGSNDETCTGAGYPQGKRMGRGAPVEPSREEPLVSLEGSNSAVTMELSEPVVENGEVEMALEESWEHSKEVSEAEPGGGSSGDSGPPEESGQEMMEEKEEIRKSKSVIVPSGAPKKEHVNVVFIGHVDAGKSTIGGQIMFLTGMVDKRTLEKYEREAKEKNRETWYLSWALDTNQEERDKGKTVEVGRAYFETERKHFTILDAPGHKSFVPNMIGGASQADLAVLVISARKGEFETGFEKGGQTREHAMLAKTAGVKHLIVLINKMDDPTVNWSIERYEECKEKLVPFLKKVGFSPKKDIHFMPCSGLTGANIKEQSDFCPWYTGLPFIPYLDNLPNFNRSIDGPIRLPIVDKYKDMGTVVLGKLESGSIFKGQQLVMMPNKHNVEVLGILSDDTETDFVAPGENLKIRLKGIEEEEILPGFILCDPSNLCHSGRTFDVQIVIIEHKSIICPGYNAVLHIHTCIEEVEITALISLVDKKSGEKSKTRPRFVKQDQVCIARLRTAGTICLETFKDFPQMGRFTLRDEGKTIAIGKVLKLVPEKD

Misshapen-like kinase 1 = Misshapen-like kinase 1 (Homo sapiens, UniProt Q8N4C8)
Misshapen-like kinase 1, sequence (Q8N4C8 whole entry): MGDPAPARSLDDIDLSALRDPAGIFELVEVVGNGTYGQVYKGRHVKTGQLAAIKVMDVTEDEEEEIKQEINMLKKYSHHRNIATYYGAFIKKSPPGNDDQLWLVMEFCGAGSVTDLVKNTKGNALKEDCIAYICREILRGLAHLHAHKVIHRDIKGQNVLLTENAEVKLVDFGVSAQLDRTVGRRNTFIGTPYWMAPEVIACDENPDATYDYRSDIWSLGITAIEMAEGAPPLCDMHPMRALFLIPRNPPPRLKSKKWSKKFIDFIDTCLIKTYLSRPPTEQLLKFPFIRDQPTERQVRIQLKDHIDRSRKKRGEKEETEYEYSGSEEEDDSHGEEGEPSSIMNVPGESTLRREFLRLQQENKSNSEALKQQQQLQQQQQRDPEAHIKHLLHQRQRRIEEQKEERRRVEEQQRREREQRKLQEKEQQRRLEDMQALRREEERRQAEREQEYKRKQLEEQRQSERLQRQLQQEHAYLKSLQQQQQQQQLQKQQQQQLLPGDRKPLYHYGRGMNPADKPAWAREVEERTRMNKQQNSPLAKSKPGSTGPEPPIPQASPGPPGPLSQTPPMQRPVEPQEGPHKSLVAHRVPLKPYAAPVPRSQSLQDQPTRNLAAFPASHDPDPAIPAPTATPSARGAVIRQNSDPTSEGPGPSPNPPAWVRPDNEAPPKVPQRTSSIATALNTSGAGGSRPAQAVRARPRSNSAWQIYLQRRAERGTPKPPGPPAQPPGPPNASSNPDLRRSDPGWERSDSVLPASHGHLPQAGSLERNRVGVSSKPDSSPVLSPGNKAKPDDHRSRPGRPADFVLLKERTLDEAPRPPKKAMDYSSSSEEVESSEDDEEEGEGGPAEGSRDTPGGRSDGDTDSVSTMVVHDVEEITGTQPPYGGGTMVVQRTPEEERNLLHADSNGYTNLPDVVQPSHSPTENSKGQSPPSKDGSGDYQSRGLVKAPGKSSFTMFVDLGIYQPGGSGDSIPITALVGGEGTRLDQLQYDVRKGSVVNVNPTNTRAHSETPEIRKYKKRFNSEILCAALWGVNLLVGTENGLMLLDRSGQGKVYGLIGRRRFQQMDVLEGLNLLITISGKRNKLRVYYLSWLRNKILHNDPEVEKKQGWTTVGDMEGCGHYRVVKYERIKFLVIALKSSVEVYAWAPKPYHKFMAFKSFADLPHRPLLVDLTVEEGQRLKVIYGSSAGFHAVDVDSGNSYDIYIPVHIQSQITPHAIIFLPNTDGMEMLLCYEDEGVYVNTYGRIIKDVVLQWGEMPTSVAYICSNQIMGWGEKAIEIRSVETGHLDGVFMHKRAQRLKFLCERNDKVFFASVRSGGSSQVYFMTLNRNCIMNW

[7] = biological target: T3, Tyrosine-protein kinase Mer (Homo sapiens, UniProt Q12866)
T3 sequence (Q12866 whole entry): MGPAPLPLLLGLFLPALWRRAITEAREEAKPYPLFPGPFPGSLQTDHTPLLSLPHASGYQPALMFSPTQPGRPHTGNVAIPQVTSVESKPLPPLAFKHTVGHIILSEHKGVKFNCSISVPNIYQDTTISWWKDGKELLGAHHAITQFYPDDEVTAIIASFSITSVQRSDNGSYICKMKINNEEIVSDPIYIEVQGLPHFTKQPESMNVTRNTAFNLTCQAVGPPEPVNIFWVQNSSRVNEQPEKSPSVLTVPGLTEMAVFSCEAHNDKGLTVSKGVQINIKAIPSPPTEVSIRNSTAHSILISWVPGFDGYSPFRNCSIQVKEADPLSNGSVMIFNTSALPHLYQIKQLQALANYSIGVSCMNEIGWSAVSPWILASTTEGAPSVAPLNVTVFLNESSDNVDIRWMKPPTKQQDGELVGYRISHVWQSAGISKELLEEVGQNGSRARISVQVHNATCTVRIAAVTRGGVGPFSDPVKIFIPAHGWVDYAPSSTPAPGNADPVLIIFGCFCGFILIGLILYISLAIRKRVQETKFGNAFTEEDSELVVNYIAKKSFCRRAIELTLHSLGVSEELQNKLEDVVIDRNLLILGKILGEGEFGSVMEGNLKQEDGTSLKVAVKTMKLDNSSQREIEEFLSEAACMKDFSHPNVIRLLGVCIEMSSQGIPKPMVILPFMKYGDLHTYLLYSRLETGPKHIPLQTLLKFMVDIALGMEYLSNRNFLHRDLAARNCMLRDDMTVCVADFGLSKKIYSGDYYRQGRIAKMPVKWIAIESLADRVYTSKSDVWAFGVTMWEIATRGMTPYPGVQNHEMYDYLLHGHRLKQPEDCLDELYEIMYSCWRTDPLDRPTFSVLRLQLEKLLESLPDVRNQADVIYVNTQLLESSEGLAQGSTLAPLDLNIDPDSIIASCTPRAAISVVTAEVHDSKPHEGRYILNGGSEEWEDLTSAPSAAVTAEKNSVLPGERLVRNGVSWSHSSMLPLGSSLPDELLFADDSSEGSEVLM
Further: in the data inactive means no Kd found up to 30 µM.

| SMILES | Kd (Ephrin type-A receptor 1) | Kd [1] | Kd [2] | Kd [3] | Kd [4] | Kd [5] | Kd [6] | Kd (Misshapen-like kinase 1) | Kd [7] |
| --- | --- | --- | --- | --- | --- | --- | --- | --- | --- |
| NC(=O)c1ccc(N(C(N)=O)c2c(F)cccc2F)nc1-c1ccc(F)cc1F [VX-702] | > 30 µM (inactive) | > 30 µM (inactive) | > 30 µM (inactive) | > 30 µM (inactive) | > 30 µM (inactive) |  |  |  |  |
| Cc1cc(Nc2nc(N[C@@H](C)c3ncc(F)cn3)ncc2Cl)n[nH]1 [AZD-1480] | > 30 µM (inactive) | > 30 µM (inactive) | > 30 µM (inactive) | > 30 µM (inactive) |  | > 30 µM (inactive) | > 30 µM (inactive) |  |  |
| COc1cc2ncnc(Nc3ccc(O)cc3)c2cc1OC [WHI-P131] | > 30 µM (inactive) | > 30 µM (inactive) |  | > 30 µM (inactive) | > 30 µM (inactive) | > 30 µM (inactive) |  |  |  |
| NC[C@@](O)(c1ccc(Cl)cc1)c1ccc(-c2cn[nH]c2)cc1 [AT-13148] |  | > 30 µM (inactive) |  |  | > 30 µM (inactive) |  | > 30 µM (inactive) | > 30 µM (inactive) |  |
| CC1(COc2ccc3c(c2)ncn3-c2ccc3cccc(N4CCC(N)CC4)c3n2)COC1 [CRENOLANIB] | > 30 µM (inactive) | > 30 µM (inactive) | 0.025 µM (active) | > 30 µM (inactive) |  | > 30 µM (inactive) | > 30 µM (inactive) |  |  |
| C=CCn1c(=O)c2cnc(Nc3ccc(N4CCN(C)CC4)cc3)nc2n1-c1cccc(C(C)(C)O)n1 [ADAVOSERTIB] | > 30 µM (inactive) |  | > 30 µM (inactive) | > 30 µM (inactive) | > 30 µM (inactive) |  |  |  | > 30 µM (inactive) |
| O=S(=O)(c1cccc2cnccc12)N1CCCNCC1 [FASUDIL] | > 30 µM (inactive) |  | > 30 µM (inactive) |  |  |  | > 30 µM (inactive) |  |  |
| C=CC(=O)Nc1cc(Nc2nccc(-c3cn(C)c4ccccc34)n2)c(OC)cc1N(C)CCN(C)C [OSIMERTINIB] | > 30 µM (inactive) | > 30 µM (inactive) | > 30 µM (inactive) |  | > 30 µM (inactive) |  | > 30 µM (inactive) | > 30 µM (inactive) |  |
| O=C(NC[C@H](O)CO)c1ccncc1Nc1ccc(I)cc1F [PIMASERTIB] |  | > 30 µM (inactive) | > 30 µM (inactive) | > 30 µM (inactive) |  | > 30 µM (inactive) | > 30 µM (inactive) | > 30 µM (inactive) |  |

Results, then the compound that gave them:

| Kd (Ephrin type-A receptor 1) | Kd [1] | Kd [2] | Kd [3] | Kd [4] | Kd [5] | Kd [6] | Kd (Misshapen-like kinase 1) | Kd [7] | SMILES |
| --- | --- | --- | --- | --- | --- | --- | --- | --- | --- |
| > 30 µM (inactive) |  | > 30 µM (inactive) |  | > 30 µM (inactive) |  | > 30 µM (inactive) | > 30 µM (inactive) |  | Cn1c(=O)n(-c2ccc(C(C)(C)C#N)cc2)c2c3cc(-c4cnc5ccccc5c4)ccc3ncc21 [DACTOLISIB] |
|  |  |  |  |  |  | > 30 µM (inactive) |  |  | CN(C)C/C=C/C(=O)Nc1cc2c(Nc3ccc(F)c(Cl)c3)ncnc2cc1O[C@H]1CCOC1 [AFATINIB] |
|  | > 30 µM (inactive) | > 30 µM (inactive) |  |  |  | > 30 µM (inactive) |  |  | COc1cccc2cc(-c3nc([C@H]4CC[C@H](C(=O)O)CC4)n4ncnc(N)c34)[nH]c12 [OSI-027] |
| > 30 µM (inactive) | > 30 µM (inactive) |  |  |  | > 30 µM (inactive) | > 30 µM (inactive) |  | > 30 µM (inactive) | O=S(=O)(c1cccc2c(O)nccc12)N1CCCNCC1 [HYDROXYFASUDIL] |
| 0.193 µM (active) | > 30 µM (inactive) | > 30 µM (inactive) | > 30 µM (inactive) |  | > 30 µM (inactive) | > 30 µM (inactive) | > 30 µM (inactive) | > 30 µM (inactive) | CCc1cc2c(cc1N1CCC(N3CCOCC3)CC1)C(C)(C)c1[nH]c3cc(C#N)ccc3c1C2=O [ALECTINIB] |
|  |  |  |  |  | > 30 µM (inactive) | 0.003 µM |  |  | CC1(C)CNc2cc(NC(=O)c3cccnc3NCc3ccncc3)ccc21 [MOTESANIB] |
| > 30 µM (inactive) | > 30 µM (inactive) | > 30 µM (inactive) |  | > 30 µM (inactive) |  |  | > 30 µM (inactive) | > 30 µM (inactive) | C[C@@H]1COC(Nc2ccc3ncnc(Nc4ccc(OCc5nccs5)c(Cl)c4)c3c2)=N1 [VARLITINIB] |
|  | > 30 µM (inactive) | > 30 µM (inactive) | > 30 µM (inactive) |  |  | > 30 µM (inactive) |  |  | COc1cc2nccc(Oc3ccc(NC(=O)C4(C(=O)Nc5ccc(F)cc5)CC4)cc3)c2cc1OC [CABOZANTINIB] |
| > 30 µM (inactive) | > 30 µM (inactive) | > 30 µM (inactive) | > 30 µM (inactive) | > 30 µM (inactive) |  |  |  | > 30 µM (inactive) | CNC(=O)c1cccc(-c2ccc3c(N4CCOC[C@@H]4C)nc(N4CCOC[C@@H]4C)nc3n2)c1 [VISTUSERTIB] |
| > 30 µM (inactive) | > 30 µM (inactive) | > 30 µM (inactive) | > 30 µM (inactive) | > 30 µM (inactive) |  |  | > 30 µM (inactive) | > 30 µM (inactive) | C#Cc1cccc(Nc2ncnc3cc4c(cc23)OCCOCCOCCO4)c1 [ICOTINIB] |

From ChEMBL document CHEMBL3991601, “The target landscape of clinical kinase drugs” (Science, 2017)
